# From patent US9540325B2, “N1-cyclic amine-N5-substituted phenyl biguanide derivatives, methods of preparing the same and pharmaceutical composition comprising the same” (Immunomet Therapeutics, Inc., priority 2011, dated 2017)
# Legend:
# [1] = test system: MCF7 cells (breast cancer stem cell, mammosphere); test: Measurement of effect of inhibiting mammosphere formation; format: cell-based, human; conditions: MCF7, 8 days; for Number of Mammospheres: size 50 um or more; for inhibition at 0.1 µM / inhibition at 1 µM / inhibition at 5 µM / inhibition at 10 µM: Homo sapiens, 192 h, vs untreated, read-out: Mammosphere formation inhibition rate (%)
# Description: The cancer stem cells refer to cancer cells that have self-regeneration or differentiation capacity which is characteristically innate to stem cells. Here, the cancer stem cells show resistance to conventional anticancer therapy and poor prognosis. Therefore, the biguanide derivative has an effect of inhibiting cancer recurrence by inhibiting formation and proliferation of cancer stem cells, especially, breast cancer stem cells (mammosphere). Accordingly, the effect of the biguanide derivative of inhibiting breast cancer stem cell (mammosphere) formation was measured in an MCF7 cell line derived from human breast cancer forming mammospheres, and simple experimental methods are described, as follows.
# MCF7 cells derived from human breast cancer were cultured (culture temperature: 37° C., pH: 7.0 to 7.4) in a DMEM medium supplemented with 10% (v/v) fetal bovine serum (commercially available from Gibco Life Technologies (US)) so that the MCF7 cells could grow to approximately 80% confluency and used in an experiment to determine an ability to form mammospheres. After MCF7 cells were made to single cells and the number of cell was counted, MCF7 cells were put in to a 24-well plate at 2,000 cells/well. […] Also, a culture media for forming mammospheres was prepared so that a serum-free DMEM/F12 medium could include 2% B27 (commercially available from Invitrogen), 20 ng/ml EGF (commercially available from Sigma), 5 μg/ml insulin (commercially available from Sigma) and 1 μg/ml hydrocortisone (commercially available from Sigma). Cells were cultured in a CO2 incubator for 24 hours and treated with each of the compounds synthesized in the examples at contents of 0.1 μM, 1 μM, 5 μM and 10 μM. Then, the cultured cells were added to the culture media for forming mammospheres so that a final volume of the culture broth could be adjusted to 1 ml. The cells were treated with the same concentrations of phenformin hydrochloride as the control and cultured in a CO2 incubator for 8 days. Thereafter, the mammosphere-forming efficiency and size of the cells were observed. After 8 days, the number of mammospheres having a size of 50 um or more was determined to calculate the mammosphere-forming efficiency (MFE (%)). The MFE (%) is calculated according to the following Equation 1.
# When the cells were cultured for 8 days, MFE (%) of the cells on a plate treated with the phenformin hydrochloride and the compounds synthesized in the examples was compared with MFE (%) of the cells on a plate that was not treated with the compounds. The results are listed as the mammosphere formation inhibition rate (%) in the following Table 4, and the mammosphere-forming efficiencies of the respective compounds are shown in FIG. 1.
# [2] = test system: Snail; test: EMT inhibitory effect by inhibition of Snail expression (immunoblotting) in MCF7 cells; format: cell-based, human; conditions: MCF7, 48 hours, untreated control = 100%
# Procedure: Cells undergoing EMT owing to various cytokines and growth factors can acquire motility and thus move a distance to form tumors in new tissues. Therefore, the metastasis of cancer cells can be inhibited by controlling expression of EMT-related transcription factors to hinder EMT. Based on these facts, the activities of biguanide derivatives that inhibit Snail expression, which is a transcription factor inducing EMT in the MCF7 cell line derived from human breast cancer, were measured and simple experimental methods are described, as follows.
# MCF7 cells derived from human breast cancer (commercially available from Korean Cell Line Bank) were cultured in a DMEM medium supplemented with 10% (v/v) fetal bovine serum (commercially available from Gibco Life Technologies (US)), put into a 6-well plate so that the number of cultured cells could amount to approximately 5×10^5 cells per well, and then incubated in an incubator supplied with 5% CO2 (culture temperature: 37° C., pH: 7.0 to 7.4). The culture media were treated with phenformin hydrochloride and the compounds synthesized in the examples at contents of 1 μM and 10 μM, respectively, and then incubated for 48 hours. Metformin hydrochloride was used as the control, and the cells were treated with 1 mM and 10 mM metformin hydrochloride. After 48 hours, the cells were lysed in a cell lysis buffer containing 10 mM Tris HCl (pH7.4), 100 mM NaCl, 1 mM EDTA, 1 mM EGTA, 1 mM NaF, 20 mM Na4P2O7, 2 mM Na3VO4, 1% TritonX-100, 10% glycerol, 0.5% deoxycholate and 1 mM PMSF. Then, 25 μg of the cell lysate was electrophoresized in an SDS-PAGE gel, and then transferred to a […] membrane (commercially available from Amersham Life Science). The membrane reacted with rat monoclonal anti-human Snail (commercially available from Cell signaling Technology) or mouse monoclonal anti-β-actin (commercially available from Santa cruz Biotechnology), and unbound antibodies were removed. In this case, anti-β-actin was used as the antibody to ensure that the amount of proteins loaded into the SDS-PAGE gel is identical. The membrane was reacted again with a secondary antibody, anti-rat IgG (commercially available from Cell signaling Technology) or anti-mouse IgG (commercially available from Santa Cruz Biotechnology). Finally, the antibody bound to the membrane was detected using an ECL Plus system (commercially available from Amersham Life Science). Also, the expression level of Snail with respect to β-actin was analyzed using a Scion image analysis program. Here, when it was assumed that the expression level of the untreated control was 100%, the expression level of the Snail by treatment with the compounds synthesized in the examples was indicated as a percentage (%).
Compound,MFE (%) (mammosphere-forming efficiency) ([1]; 0.1 μM),Number of Mammospheres ([1]; 0.1 μM),MFE (%) (mammosphere-forming efficiency) ([1]; 1 μM),Number of Mammospheres ([1]; 1 μM),MFE (%) (mammosphere-forming efficiency) ([1]; 5 μM),Number of Mammospheres ([1]; 5 μM),MFE (%) (mammosphere-forming efficiency) ([1]; 10 μM),Number of Mammospheres ([1]; 10 μM),inhibition at 0.1 µM ([1]; 0.1 μM),inhibition at 1 µM ([1]; 1 μM),inhibition at 5 µM ([1]; 5 μM),inhibition at 10 µM ([1]; 10 μM),Snail Expression Rate (%) ([2]; 1 μM),Snail Expression Rate (%) ([2]; 10 μM),melting point
"Cl.N=C(NC(=N)N1CCCC1)Nc1ccc(C(F)(F)F)cc1 [Example 26, N1-pyrrolidine-N5-(4-trifluoromethyl)phenyl biguanide hydrochloride]",5.3%,105,5.6%,112,6.0%,120,3.6%,72 ± 11.3,-11.7%,-8.7%,-16.5%,30.1%,57.2%,14.6%,283 to 284 °C
"Cl.N=C(NC(=N)N1CCCCC1)Nc1cccc(Cl)c1 [Example 20, N1-piperidine-N5-(3-chloro)phenyl biguanide hydrochloride]",3.6%,72,5.2%,103,3.8%,75,1.5%,29,30.1%,0%,27.2%,71.8%,57.6%,8.7%,172 to 174 °C
"Cl.N=C(NC(=N)N1CCCCCC1)Nc1cccc(Cl)c1 [Example 21, N1-azepane-N5-(3-chloro)phenyl biguanide hydrochloride]",5.8%,115,5.3%,105,3.6%,71 ± 4.2,2.3%,46 ± 2.1,30.1%,-1.9%,31.1%,55.8%,83.5%,29.8%,213 to 215 °C
"Cl.N=C(NC(=N)N1CCCCC1)Nc1ccc(C(F)(F)F)cc1 [Example 27, N1-piperidine-N5-(4-trifluoromethyl)phenyl biguanide hydrochloride]",5.2%,103,5.2%,105 ± 16.3,3.0%,61 ± 3.5,1.6%,32,0%,-1.5%,41.3%,68.9%,52.7%,13.2%,273 to 274 °C
